Laboratory results taken from patent US8637664B2, “Alkyl 4- [4- (5-oxo-2,3,5, 11a-tetrahydo-5H-pyrrolo [2, 1-c] [1,4] benzodiazepine-8-yloxy)-butyrylamino]-1H-pyrrole-2-carboxylate derivatives and related compounds for the treatment of a proliferative disease” (Spirogen SARL, priority 2005, dated 2014).

Tests used:
calf thymus DNA (CT-DNA) = assay: DNA thermal denaturation (melting) studies; assay type: binding; conditions: CT-DNA 100 μM DNAp, compound 20 μM, 37 °C; for Induced ΔTm after incubation 0 hours: pH 7.00, 0 hours; for Induced ΔTm after incubation 4 hours: pH 7.00, 4 hours; for Induced ΔTm after incubation 18 hours: pH 7.00, 18 hours; for Induced ΔTm after incubation 72 hours: pH 7.00, 72 hours
Method: The PBD agents were subjected to DNA thermal melting (denaturation) studies (Gregson, S. J., et al., Journal of Medicinal Chemistry, 44(5), 737-748 (2001); Jones, G. B., et al., Anti-Cancer Drug Design, 5(3), 249-264 (1990); McConnaughie, A. W. and; Jenkins, T. C. Journal of Medicinal Chemistry, 38(18), 3488-3501 (1995)) using calf thymus DNA (CT-DNA, type-1, highly polymerized sodium salt; 42% G+C [Sigma]) at a fixed 100 μM (DNAp=50 μM bp) concentration, determined using an extinction coefficient of 6600 (M phosphate)^−1 cm^−1 at 260 nm (Manzini, G., et al., Nucleic Acids Research, 11(24), 8861-8876 (1983)). Solutions were prepared in pH 7.00±0.01 aqueous buffer containing 10 mM NaH2PO4/Na2HPO4 and 1 mM EDTA. Working solutions containing CT-DNA and the test compound (20 μM) were incubated at 37.0±0.1° C. for 0 to 18 hours using an external water bath. Samples were monitored at 260 nm using a Varian-Cary 400 Bio spectrophotometer fitted with a Peltier heating accessory. Heating was applied at a rate of 1° C./min in the 45 to 98° C. temperature range, with optical and temperature data sampling at 200 ms intervals. A separate experiment was carried out using buffer alone, and this baseline was subtracted from each DNA melting curve before data treatment. Optical data were imported into the Origin 5 program (MicroCal Inc., Northampton, Mass.) for analysis. DNA helix→coil transition temperatures (Tm) were determined at the midpoint of the normalized melting profiles using a published analytical procedure (Jones, G. B., et al., Anti-Cancer Drug Design, 5(3), 249-264 (1990)). Results are given in table 1 as the mean±standard deviation from at least three determinations. Ligand-induced alterations in DNA melting behaviour (ΔTm) are given by ΔTm=Tm(DNA+ligand)−Tm(DNA), where the Tm value determined for free CT-DNA is 67.82±0.06° C. (averaged from >90 runs). All PBD compounds were dissolved in HPLC-grade MeOH to give working solutions containing ≦0.6% v/v MeOH; Tm results were corrected for the effects of MeOH co-solvent by using a linear correction term.
The above method was also carried out on the compounds of example 2, with all compounds being incubated for up to 72 hours.

[1] = test system: 170 bp sequence of the human Topo-IIa promoter; assay: DNase I footprinting on Topo-IIa promoter (ICB1, ICB2 sites); assay type: binding; conditions: for Concentration at which DNA binding is observed, ICB1: ICB1 site; for Concentration at which DNA binding is observed, ICB2: ICB2 site
Method: In a similar manner to Example 4, the affinity and sequence selectivity of certain compounds of examples 1 and 2 was evaluated by standard DNA footprinting on a 170 bp sequence of the human Topo-IIa promoter, in accordance with the technique described in Martin, C., et al.
Selected results are shown in FIG. 9, wherein the concentrations of the lanes were 0, 1.6, 8, 40, 200, 1000, 5000 and 25000 nM in each case.
The footprinting results allowed the identification of compounds that could potentially disrupt transcription factor binding at the ICB1 and ICB2 sites. […] These compounds are detailed below in table 3, showing the concentrations (μM) at which the PBD-heterocycle conjugates bind at ICB1 and ICB2.

[2] = test system: NF-Y binding at ICB2 of Topoisomerase IIα promoter; assay: NF-Y gel shift assay (EMSA) at ICB2

Row | SMILES | Induced ΔTm after incubation 0 hours (calf thymus DNA (CT-DNA)) [°C] | Induced ΔTm after incubation 4 hours (calf thymus DNA (CT-DNA)) [°C] | Induced ΔTm after incubation 18 hours (calf thymus DNA (CT-DNA)) [°C] | Induced ΔTm after incubation 72 hours (calf thymus DNA (CT-DNA)) [°C] | Concentration at which DNA binding is observed, ICB1 [1] [µM] | Concentration at which DNA binding is observed, ICB2 [1] [µM] | Lowest concentration at which NF-Y binding inhibition was observed [2] [µM]
1 | COC(=O)c1cc(NC(=O)c2csc(NC(=O)CCCOc3cc4c(cc3OC)C(=O)N3CCC[C@H]3C=N4)n2)cn1C [Compound 55] | 14.5 | 15.2 | 15.8 | 16.1 | – | – | –
2 | COC(=O)c1cc(NC(=O)c2nc(NC(=O)CCCOc3cc4c(cc3OC)C(=O)N3CCC[C@H]3C=N4)cn2C)cn1C [Compound 57, (11aS) Methyl 4-({4-[4-(7-Methoxy-5-oxo-2,3,5,11a-tetrahydro-5H-pyrrolo[2,1-c][1,4]benzodiazepine-8-yloxy)-butyrylamino]-1-methyl-1H-imidazole-2-carbonyl}-amino)-1-methyl-1H-pyrrole-2-carboxylate] | 2.8 | 3.0 | 3.1 | 3.2 | – | – | –
3 | CCOC(=O)c1nc(NC(=O)c2nc(NC(=O)CCCOc3cc4c(cc3OC)C(=O)N3CCC[C@H]3C=N4)cn2C)cn1C [Compound 59, (11aS) Ethyl 4-({4-[4-(7-Methoxy-5-oxo-2,3,5,11a-tetrahydro-5H-pyrrolo[2,1-c][1,4]benzodiazepine-8-yloxy)-butyrylamino]-1-methyl-1H-imidazole-2-carbonyl}-amino)-1-methyl-1H-imidazole-2-carboxylate] | 10.3 | 10.9 | 11.4 | 11.4 | – | – | –
4 | CCOC(=O)c1csc(NC(=O)c2csc(NC(=O)CCCOc3cc4c(cc3OC)C(=O)N3CCC[C@H]3C=N4)n2)n1 [Compound 61, (11aS) Ethyl 2-({2-[4-(7-Methoxy-5-oxo-2,3,5,11a-tetrahydro-5H-pyrrolo[2,1-c][1,4]benzodiazepine-8-yloxy)-butyrylamino]-thiazole-4-carbonyl}-amino)-thiazole-4-carboxylate] | 7.7 | 8.0 | 8.3 | 8.4 | – | – | –
5 | CCOC(=O)c1csc(NC(=O)c2cc(NC(=O)CCCOc3cc4c(cc3OC)C(=O)N3CCC[C@H]3C=N4)cn2C)n1 [Compound 63, (11aS) Ethyl 2-({4-[4-(7-Methoxy-5-oxo-2,3,5,11a-tetrahydro-5H-pyrrolo[2,1-c][1,4]benzodiazepine-8-yloxy)-butyrylamino]-1-methyl-1H-pyrrole-2-carbonyl}-amino)-thiazole-4-carboxylate] | 9.3 | 9.6 | 10.2 | 10.5 | – | – | –
6 | CCOC(=O)c1nc(NC(=O)c2cc(NC(=O)CCCOc3cc4c(cc3OC)C(=O)N3CCC[C@H]3C=N4)cn2C)cn1C [Compound 65, (11aS) Ethyl 4-({4-[4-(7-Methoxy-5-oxo-2,3,5,11a-tetrahydro-5H-pyrrolo[2,1-c][1,4]benzodiazepine-8-yloxy)-butyrylamino]-1-methyl-1H-pyrrole-2-carbonyl}-amino)-1-methyl-1H-imidazole-2-carboxylate] | 10.0 | 10.7 | 11.2 | 11.3 | – | – | –
7 | COC(=O)c1cc(NC(=O)c2nc(NC(=O)c3cc(NC(=O)CCCOc4cc5c(cc4OC)C(=O)N4CCC[C@H]4C=N5)cn3C)cn2C)cn1C [Compound 71] | 15.5 | 16.0 | 16.9 | 17.2 | 1 | 5 | 10
8 | COC(=O)c1cc(NC(=O)c2csc(NC(=O)c3cc(NC(=O)CCCOc4cc5c(cc4OC)C(=O)N4CCC[C@H]4C=N5)cn3C)n2)cn1C [Compound 73] | 18.5 | 19.9 | 20.7 | 20.9 | 5 | 1 | 10
9 | COC(=O)c1cc(NC(=O)c2nc(NC(=O)c3nc(NC(=O)CCCOc4cc5c(cc4OC)C(=O)N4CCC[C@H]4C=N5)cn3C)cn2C)cn1C [Compound 75] | 14.3 | 15.0 | 15.4 | 15.6 | – | – | –
10 | CCOC(=O)c1nc(NC(=O)c2nc(NC(=O)c3nc(NC(=O)CCCOc4cc5c(cc4OC)C(=O)N4CCC[C@H]4C=N5)cn3C)cn2C)cn1C [Compound 77] | 11.0 | 11.7 | 12.0 | 12.1 | – | – | 50
11 | CCOC(=O)c1nc(NC(=O)c2cc(NC(=O)c3cc(NC(=O)CCCOc4cc5c(cc4OC)C(=O)N4CCC[C@H]4C=N5)cn3C)cn2C)cn1C [Compound 79] | 13.9 | 14.8 | 15.2 | 15.5 | – | – | –
12 | CCOC(=O)c1nc(NC(=O)c2cc(NC(=O)c3nc(NC(=O)CCCOc4cc5c(cc4OC)C(=O)N4CCC[C@H]4C=N5)cn3C)cn2C)cn1C [Compound 81] | 14.9 | 15.7 | 16.2 | 16.4 | – | – | –
13 | CCOC(=O)c1csc(NC(=O)c2csc(NC(=O)c3csc(NC(=O)CCCOc4cc5c(cc4OC)C(=O)N4CCC[C@H]4C=N5)n3)n2)n1 [Compound 83] | 10.0 | 10.7 | 10.9 | 11.0 | – | – | –
14 | CCOC(=O)c1csc(NC(=O)c2csc(NC(=O)c3cc(NC(=O)CCCOc4cc5c(cc4OC)C(=O)N4CCC[C@H]4C=N5)cn3C)n2)n1 [Compound 85] | 7.5 | 8.0 | 8.4 | 8.4 | – | – | –
15 | CCOC(=O)c1csc(NC(=O)c2cc(NC(=O)c3csc(NC(=O)CCCOc4cc5c(cc4OC)C(=O)N4CCC[C@H]4C=N5)n3)cn2C)n1 [Compound 87] | 6.4 | 6.8 | 7.1 | 7.3 | – | – | –
16 | CCOC(=O)c1csc(NC(=O)c2cc(NC(=O)c3cc(NC(=O)CCCOc4cc5c(cc4OC)C(=O)N4CCC[C@H]4C=N5)cn3C)cn2C)n1 [Compound 89] | 16.8 | 17.7 | 18.6 | 18.8 | – | – | –
